Among the data in ChEMBL document CHEMBL1139057, “Rotenoids and flavonoids with anti-invasion of HT1080, anti-proliferation of U937, and differentiation-inducing activity in HL-60 from Erycibe expansa” (Bioorg Med Chem, 2007) are Activity, inhibition and IC50 values, retold here.

Active and inactive are the calls of the source. The rule behind the calls is not given here.

Experiment [1] has as its system HL-60. Nature of the experiment: Induction of human HL60 cells differentiation assessed as number of cells at 0.02 uM after 72 hrs by NBT reduction test. The experiment is classed as functional.
Experiment [2] has as its system HL-60. Nature of the experiment: Induction of human HL60 cells differentiation assessed as number of cells at 0.01 uM after 72 hrs by NBT reduction test. The experiment is classed as functional.
Experiment [3] has as its system HL-60. The experiment in a line: […] human HL60 cells assessed NBT positive cells at 0.01 uM after 72 hrs by NBT reduction test. The experiment is classed as functional.
The test system of experiment [4] is HL-60. Nature of the experiment: […] human HL60 cells assessed NBT positive cells at 0.02 uM after 72 hrs by NBT reduction test. The experiment is classed as functional.
Experiment [5] has as its system HT-1080. The experiment in a line: Antiproliferative activity against human HT1080 cells at 3 uM after 24 hrs by MTT assay. The experiment is classed as functional. As to conditions: HT-1080, 24 h. A general note: Tetrazolium dyes change colour on reduction, which living cells bring about.
The test system of experiment [6] is HT-1080. Nature of the experiment: Inhibition of proMMP2 production in human HT1080 cells by gelatin zymography analysis. The experiment is classed as functional, cell-based.
The subject of experiment [7] is HT-1080. Nature of the experiment: Antiproliferative activity against human HT1080 cells at 1 uM after 24 hrs by MTT assay. The experiment is classed as functional. As to conditions: HT-1080, 24 h.
The test system of experiment [8] is HL-60. The experiment in a line: Induction of human HL60 cells differentiation assessed as number of cells at 10 uM after 72 hrs by NBT reduction test. The experiment is classed as functional.
Experiment [9] relates to HT-1080. The experiment in a line: Antiproliferative activity against human HT1080 cells at 3 uM after 48 hrs by calcein-AM assay. The experiment is classed as functional. As to conditions: HT-1080, 48 h.
Experiment [10] concerns HT-1080. The experiment in a line: Antiproliferative activity against human HT1080 cells at 1 uM after 48 hrs by calcein-AM assay. The experiment is classed as functional. As to conditions: HT-1080, 48 h.
The test system of experiment [11] is HT-1080. Nature of the experiment: Antiproliferative activity against human HT1080 cells at 3 uM after 72 hrs by MTT assay. The experiment is classed as functional. As to conditions: HT-1080, 72 h.
Experiment [12] deals with HT-1080. Nature of the experiment: Antiproliferative activity against human HT1080 cells at 10 uM after 24 hrs by MTT assay. The experiment is classed as functional. As to conditions: HT-1080, 24 h.
Experiment [13] concerns HT-1080. The experiment in a line: Antiproliferative activity against human HT1080 cells at 1 uM after 72 hrs by calcein-AM assay. As to conditions: HT-1080, 72 h. The experiment is classed as functional.
Experiment [14] deals with HT-1080. Nature of the experiment: Antiproliferative activity against human HT1080 cells at 30 uM after 24 hrs by calcein-AM assay. The experiment is classed as functional. As to conditions: HT-1080, 24 h.
In experiment [15] the test system is HT-1080. Nature of the experiment: Antiproliferative activity against human HT1080 cells at 30 uM after 72 hrs by calcein-AM assay. The experiment is classed as functional. As to conditions: HT-1080, 72 h.
Experiment [16] concerns HT-1080. The experiment in a line: Inhibition of invasion of human HT1080 cells at 1 uM after 24 hrs. The experiment is classed as functional. As to conditions: HT-1080, 24 h.
The test system of experiment [17] is HT-1080. Nature of the experiment: Antiproliferative activity against human HT1080 cells at 3 uM after 72 hrs by calcein-AM assay. The experiment is classed as functional. As to conditions: HT-1080, 72 h.
Experiment [18] concerns U-937. Nature of the experiment: Antiproliferative activity against human U937 cells after 48 hrs by WST-8 assay. As to conditions: U-937, 48 h. The experiment is classed as functional, cell-based.
Experiment [19] concerns HT-1080. The experiment in a line: Inhibition of invasion of human HT1080 cells at 10 uM after 24 hrs. As to conditions: HT-1080, 24 h. The experiment is classed as functional.
For experiment [20], the system named is HT-1080. Nature of the experiment: Antiproliferative activity against human HT1080 cells at 10 uM after 72 hrs by calcein-AM assay. The experiment is classed as functional. As to conditions: HT-1080, 72 h.
Experiment [21] has as its system HT-1080. Nature of the experiment: Antiproliferative activity against human HT1080 cells at 10 uM after 48 hrs by MTT assay. The experiment is classed as functional. As to conditions: HT-1080, 48 h.
For experiment [22], the system named is HT-1080. Nature of the experiment: Antiproliferative activity against human HT1080 cells at 30 uM after 48 hrs by MTT assay. As to conditions: HT-1080, 48 h. The experiment is classed as functional.
Experiment [23] deals with HT-1080. The experiment in a line: Antiproliferative activity against human HT1080 cells at 30 uM after 24 hrs by MTT assay. As to conditions: HT-1080, 24 h. The experiment is classed as functional.
The subject of experiment [24] is HT-1080. The experiment in a line: Antiproliferative activity against human HT1080 cells at 3 uM after 48 hrs by MTT assay. As to conditions: HT-1080, 48 h. The experiment is classed as functional.
Experiment [25] concerns HT-1080. The experiment in a line: Inhibition of proMMP9 production in human HT1080 cells by gelatin zymography analysis. The experiment is classed as functional, cell-based.
The test system of experiment [26] is HT-1080. Nature of the experiment: Antiproliferative activity against human HT1080 cells at 10 uM after 48 hrs by calcein-AM assay. As to conditions: HT-1080, 48 h. The experiment is classed as functional.
The subject of experiment [27] is U-937. Nature of the experiment: Antiproliferative activity against human U937 cells after 24 hrs by WST-8 assay. The experiment is classed as functional, cell-based. As to conditions: U-937, 24 h.
In experiment [28] the test system is U-937. Nature of the experiment: Antiproliferative activity against human U937 cells after 72 hrs by WST-8 assay. The experiment is classed as functional, cell-based. As to conditions: U-937, 72 h.
In experiment [29] the test system is HT-1080. Nature of the experiment: Antiproliferative activity against human HT1080 cells at 1 uM after 24 hrs by calcein-AM assay. The experiment is classed as functional. As to conditions: HT-1080, 24 h.
Experiment [30] relates to HT-1080. Nature of the experiment: Antiproliferative activity against human HT1080 cells at 1 uM after 48 hrs by MTT assay. The experiment is classed as functional. As to conditions: HT-1080, 48 h.
In experiment [31] the test system is HT-1080. The experiment in a line: Antiproliferative activity against human HT1080 cells at 10 uM after 72 hrs by MTT assay. The experiment is classed as functional. As to conditions: HT-1080, 72 h.
Experiment [32] has as its system HT-1080. Nature of the experiment: Antiproliferative activity against human HT1080 cells at 30 uM after 48 hrs by calcein-AM assay. The experiment is classed as functional. As to conditions: HT-1080, 48 h.
The subject of experiment [33] is HT-1080. Nature of the experiment: Antiproliferative activity against human HT1080 cells at 3 uM after 24 hrs by calcein-AM assay. The experiment is classed as functional. As to conditions: HT-1080, 24 h.
Experiment [34] deals with HL-60. Nature of the experiment: […] human HL60 cells assessed NBT positive cells at 10 uM after 72 hrs by NBT reduction test. The experiment is classed as functional.
Experiment [35] relates to HL-60. The experiment in a line: Induction of human HL60 cells differentiation assessed as number of cells at 20 uM after 72 hrs by NBT reduction test. The experiment is classed as functional.
The subject of experiment [36] is HT-1080. The experiment in a line: Inhibition of invasion of human HT1080 cells at 3 uM after 24 hrs. As to conditions: HT-1080, 24 h. The experiment is classed as functional.
The test system of experiment [37] is HT-1080. The experiment in a line: Antiproliferative activity against human HT1080 cells at 30 uM after 72 hrs by MTT assay. The experiment is classed as functional. As to conditions: HT-1080, 72 h.
Experiment [38] deals with HL-60. Nature of the experiment: […] human HL60 cells assessed NBT positive cells at 30 uM after 72 hrs by NBT reduction test. The experiment is classed as functional.
In experiment [39] the test system is HT-1080. Nature of the experiment: Inhibition of invasion of human HT1080 cells at 30 uM after 24 hrs. The experiment is classed as functional. As to conditions: HT-1080, 24 h.
In experiment [40] the test system is HT-1080. Nature of the experiment: Antiproliferative activity against human HT1080 cells at 10 uM after 24 hrs by calcein-AM assay. The experiment is classed as functional. As to conditions: HT-1080, 24 h.
Experiment [41] has as its system HT-1080. Nature of the experiment: Antiproliferative activity against human HT1080 cells at 1 uM after 72 hrs by MTT assay. The experiment is classed as functional. As to conditions: HT-1080, 72 h.

`C=C1/C(=C\C=C2/CCC[C@]3(C)[C@@H]([C@H](C)CCCC(C)(C)O)CC[C@@H]23)C[C@@H](O)C[C@@H]1O` [CALCITRIOL]: the Activity is 6.8 10^5/ml in the experiment on HL-60 [1], 8 10^5/ml in the experiment on HL-60 [2], 15.6% in the experiment on HL-60 [3] and 27.9% with HL-60 [4].
Usually inhibition stands for the relative decrease from the control value, in per cent. The term IC50 denotes the midpoint of a concentration-inhibition curve. Higher therefore signals a need for much substance. On to `COc1cc2c(cc1OC)[C@@H]1C(=O)c3ccc4c(c3O[C@@H]1CO2)C=CC(C)(C)O4` [DEGUELIN], for which the inhibition at 3 µM in the experiment with HT-1080 [5] is 8.6%; with HT-1080 [9] it was 44.2%; with HT-1080 [11], 98.7%; in the experiment on HT-1080 [17] it was 98.5%; in the experiment with HT-1080 [24], 96.5%; in the experiment on HT-1080 [33], -0.9%. Also, in the experiment on HT-1080 [36], the inhibition at 3 µM was 50.2%. In addition, the outcome with HT-1080 [6] and in the experiment with HT-1080 [25] was Active. The inhibition at 1 µM is 6.3% in the experiment with HT-1080 [7]; 35.2% in the experiment with HT-1080 [10]; 95.3% with HT-1080 [13]; 38% with HT-1080 [16]; 10.5% in the experiment on HT-1080 [29]; 78.3% with HT-1080 [30]. The inhibition at 1 µM in the experiment on HT-1080 [41] is 98.2%. Besides, the Activity with HL-60 [8] is reported as 2.1 10^5/ml; with HL-60 [34] it was 12.5%; in the experiment with HL-60 [35] it was 0.3 10^5/ml; in the experiment on HL-60 [38], 22.2%. The inhibition at 10 µM in the experiment with HT-1080 [12] was 10.7%; in the experiment on HT-1080 [19] it was 58%; with HT-1080 [20] it was 98.5%; in the experiment on HT-1080 [21], 97.7%; in the experiment on HT-1080 [26], 51%; with HT-1080 [31], 98.8%. In the experiment with HT-1080 [40], the inhibition at 10 µM was -1.8%. For the same compound, the inhibition at 30 µM is 17% in the experiment on HT-1080 [14]; 98.5% in the experiment with HT-1080 [15]; 97.3% in the experiment on HT-1080 [22]; 10.9% in the experiment on HT-1080 [23]; 40.4% in the experiment on HT-1080 [32]; 98.9% with HT-1080 [37]. The inhibition at 30 µM in the experiment with HT-1080 [39] was found to be 57.9%. Besides, the IC50 in the experiment with U-937 [18] worked out at 16 µM; in the experiment on U-937 [27], 42 µM; in the experiment on U-937 [28] it was 5.8 µM.
